Measured values as given in PMC8767159, “Multiparameter Optimization of Trypanocidal Cruzain Inhibitors With In Vivo Activity and Favorable Pharmacokinetics” (Frontiers in Pharmacology, 2022).
Where two headings read alike, the source gives them in different places.

How the values were obtained:
cruzain = biological target: T1, cruzain (Trypanosoma cruzi, UniProt P25779); assay: Cruzain enzyme inhibition assay (cleavage of fluorogenic substrate Z-FR-AMC); type: biochemical; conditions: for % cruzain inhibition, 0% Triton / % cruzain inhibition, 0.01% Triton / % cruzain inhibition, 0.1% Triton: Table S1; for % cruzain inhibition, 0% Triton: 0% Triton X-100; for % cruzain inhibition, 0.01% Triton: 0.01% Triton X-100; for % cruzain inhibition, 0.1% Triton: 0.1% Triton X-100; for inhibition at 100 µM: compound 100 µM, mean of three measures; for Mechanism of cruzain inhibition (Lineweaver-Burk plots): eight substrate and four inhibitor concentrations
T1 construct: made in house; host or cells: Escherichia coli (strain M15)
Outline: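 Recombinant C-terminally truncated cruzain, activated from pro-enzyme, assayed in 0.1 M sodium acetate pH 5.5 with 5 mM DTT and 0.01% Triton X-100 (also run at 0 and 0.1%) at 30°C. Z-FR-AMC cleavage followed 5 min (ex 355/em 460 nm); IC50 from initial rates versus DMSO, ≥6 concentrations in triplicate; single-dose at 100 μM.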

[1] = Fraction unbound by equilibrium dialysis; type: in vitro ADME; conditions: pH 7.4
Outline: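 Test compounds at 1, 2, 20, 200, 2,000 and 5,000 nM in plasma, microsome suspension or buffer with 10% FCS, dialysed against 50 mM potassium phosphate pH 7.4 across a 12–14 kDa membrane, 37°C, 150 rpm, 4 h. Both sides quantified by LC-MS/MS against a standard curve; triplicates.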

[2] = Experimental distribution coefficient (eLogD) by LC retention time; type: physicochemical; conditions: for chromatographic logD: C18 column (LC retention time); for eLogD: Table S5
Method: For the eLogD assays ([Waring, 2010]), each compound (5 μl) from a 5 mM stock solution was diluted in 245 μl of a solution containing buffers A (5% MeOH, 10 mM ammonium acetate, pH 7.4) and B (100% MeOH, pH 7.4) (50:50). Nine control compounds with known eLogD and column retention times (acyclovir, atenolol, antipyrine, fluconazole, metoprolol, carbamazepine, ketoconazole, tolnaftate, and amiodarone; eLogD values ranging from −1.86 to 6.1) were subjected to LC-MS/MS in triplicate before and after the analysis of the test compounds. Retention times were recorded for each control and test compound in a C18 column. The retention time of each control compound was plotted against the respective eLogD values described in the literature ([Lombardo et al., 2002]; [Lombardo et al., 2004]; [Alelyunas et al., 2010]). The resulting linear equation (y = mx + b) was used to calculate the eLogD values of the test compounds, in which x is the retention time in minutes and y is the eLogD value.

[3] = 1.5 nM cruzain, 5.0 µM Z-FR-AMC, mean ± SD of 2–3 assays, read-out: IC50 (µM) against cruzain
[4] = Table S6, fraction unbound used to correct plasma clearance
[5] = Table S2, substrate 2.5 µM, read-out: IC50 (µM) cruzain at [S] 2.5 µM
[6] = Table S2, substrate 5 µM, read-out: IC50 (µM) cruzain at [S] 5 µM
[7] = Table S2, substrate 10 µM, read-out: IC50 (µM) cruzain at [S] 10 µM
[8] = Table S2, substrate 15 µM, read-out: IC50 (µM) cruzain at [S] 15 µM
[9] = Table S2, substrate 20 µM, read-out: IC50 (µM) cruzain at [S] 20 µM
[10] = Table S2, substrate 40 µM, read-out: IC50 (µM) cruzain at [S] 40 µM

T1 sequence (P25779 123-337 limits assumed): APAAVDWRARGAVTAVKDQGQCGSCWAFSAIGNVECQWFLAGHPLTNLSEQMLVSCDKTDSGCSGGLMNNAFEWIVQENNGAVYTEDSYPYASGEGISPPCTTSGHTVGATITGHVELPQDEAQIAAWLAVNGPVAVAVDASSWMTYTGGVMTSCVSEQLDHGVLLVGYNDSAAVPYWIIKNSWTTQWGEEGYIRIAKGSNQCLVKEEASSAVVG

chromatographic logD ([2]; pH 7.4, Table S5)	SMILES	% cruzain inhibition, 0% Triton (cruzain) [%]	% cruzain inhibition, 0.01% Triton (cruzain) [%]	% cruzain inhibition, 0.1% Triton (cruzain) [%]	inhibition at 100 µM (cruzain) [%]	fraction unbound at 4 h, 1 µM ([1]; Table S5, fraction unbound)	IC50 (cruzain; [3]) [µM]	Mechanism of cruzain inhibition (Lineweaver-Burk plots) (cruzain)	fraction unbound at 4 h, 1 µM [1, 4]	chromatographic logD ([2]; pH 7.4, Table 3, pH 7.4)	eLogD [2]	IC50 (cruzain; [5]) [µM]	IC50 (cruzain; [6]) [µM]	IC50 (cruzain; [7]) [µM]	IC50 (cruzain; [8]) [µM]	IC50 (cruzain; [9]) [µM]	IC50 (cruzain; [10]) [µM]
4.5	O=C(COc1ccccc1)NCCc1nc2ccccc2n1CCOc1ccccc1Br [Compound 19]	73.4 ± 2.5	72.1 ± 1.7	77.5 ± 2.2	72	0.12											
1.8	O=C(COc1cccc(N2C(=O)CCC2=O)c1)NCCc1nc2ccccc2[nH]1 [Compound 6]				38	1											
	O=C(COc1ccccc1)NCCc1nc2ccccc2[nH]1 [Compound 1]				90	1	10.9 ± 1	competitive	0.23	2.9	2.90						
	Nc1cccc(OCC(=O)NCCc2nc3ccccc3[nH]2)c1 [Compound 9]				90	0.99	18.2 ± 1.8			1.88	1.88						
4.69	O=C(COc1ccccc1Br)NCCc1nc2ccccc2n1CCOc1ccccc1Br [Compound 23]	52.1 ± 1.3	53.2 ± 1.9	55.5 ± 5.2	49	0.04											
	O=C(COc1ccccc1)NCCc1nc2ccccc2n1CCCOc1ccccc1 [Compound 24]	87.9 ± 0.7	82.6 ± 0.3	82.9 ± 3.5	81	0.27	2.2 ± 1.2	noncompetitive		4.45	4.45	1.7 ± 1.3	2.2 ± 1.3	2.2 ± 1.1	1.9 ± 1.8	2.5 ± 1.2	2.1 ± 0.9
4.81	Cc1ccccc1OCC(=O)NCCc1nc2ccccc2n1CCOc1ccccc1Br [Compound 22]				36	0.03											
	Cn1c(CCNC(=O)COc2ccccc2)nc2ccccc21 [Compound 25]				87	0.99	8.6 ± 1.7	competitive		2.93	2.93						
1.59	O=C(COc1ccc(N2C(=O)CCC2=O)cc1)NCCc1nc2ccccc2[nH]1 [Compound 4]				20	0.99											
	O=C(COc1ccccc1)NCCc1nc2ccccc2n1Cc1ccccc1 [Compound 26]				77	0.61	1.1 ± 0.2	noncompetitive		4.06	4.06	1.6 ± 0.1	1.8 ± 0.1	1.9 ± 0.2	1.4 ± 0.5	2.4 ± 0.9	1.2 ± 0.5
	O=C(COc1cccc([N+](=O)[O-])c1)NCCc1nc2ccccc2[nH]1 [Compound 8]				83	1	13.5 ± 2.6		0.14	2.98	2.98						
3.13	COCCn1c(CCNC(=O)COc2ccccc2)nc2ccccc21 [Compound 29]				79	1	8.8 ± 1.8										
	O=C(COc1ccccc1)NCCc1nc2ccccc2n1CCOc1ccccc1 [Compound 20]	95.2 ± 0.6	95.9 ± 1.7	96.0 ± 1.1	92	0.41	1.04 ± 0.7	noncompetitive		4.24	4.24	0.5 ± 1.3	0.4 ± 1.2	1 ± 1.5	0.8 ± 1.7	0.3	0.5 ± 1.2
	NC(=O)Cn1c(CCNC(=O)COc2ccccc2)nc2ccccc21 [Compound 28]				81	0.98	12.1 ± 2.4		0.18	2.16	2.16						
